Results published in publication PMC7927096, “Dipeptides of S-Substituted Dehydrocysteine as Artzyme Building Blocks: Synthesis, Complexing Abilities and Antiproliferative Properties” (International Journal of Molecular Sciences, 2021).
Structures can show the parent of a compound that is named as a salt.

Experiments:
[1] = tested on: MDA-MB-231 (breast adenocarcinoma); test: Antiproliferative activity, sulforhodamine B assay; type: cell-based, human; conditions: Homo sapiens, MDA-MB-231; SRB, 72 h incubation; read-out: IC50 ± SD, MDA-MB-231
Excerpt: (§1) Ten different human cancer cell lines (including drug-resistant sublines) and one non-tumorigenic murine fibroblasts cell line were used to determine antiproliferative activity of the tested compounds. The MDA-MB-231 (breast adenocarcinoma), UM-UC-3 (urinary bladder transitional cell carcinoma), LoVo (colorectal adenocarcinoma), LoVo^Dx (colorectal adenocarcinoma, doxorubicin-resistant) and Balb/3T3 (non-tumorigenic murine fibroblasts) were purchased from the American Type Culture Collection (ATCC; Rockville, USA). The MCF-7 (breast adenocarcinoma) and A549 (lung carcinoma) were purchased from European Collection of Authenticated Cell Cultures (ECACC; Porton Down, UK). The UM-UC-3^CDDP, UM-UC-3^GEM, UM-UC-3^VBL, and UM-UC-3^CDDP/GEM cell lines were established at Hirszfeld Institute of Immunology and Experimental Therapy of the Polish Academy of Sciences (HIIET, PAS, Wroclaw, Poland) by the continuous exposure to the increasing concentrations of corresponding cytostatics.
(§2) The Balb/3T3 and UM-UC-3 were cultured in Dulbecco’s Modified Eagle Medium (DMEM; Life Technologies, UK) supplemented with 10% (v/v) fetal bovine serum (FBS; GE Healthcare HyClone, Logan, USA) and 2 mM L-glutamine (Sigma-Aldrich, Poznań, Poland). The UM-UC-3^CDDP, UM-UC-3^GEM, UM-UC-^3VBL, and UM-UC-3^CDDP/GEM culture media were additionally supplemented with appropriate cytostatics: 2.5 µg/mL cisplatin (Accord, Warsaw, Poland) for UM-UC-3^CDDP, 500 nM gemcitabine (Sigma-Aldrich, Poznań, Poland) for UM-UC-3^GEM, 5 nM vinblastine (Sigma-Aldrich, Poznań, Poland) for UM-UC-3VBL, 2.5 µg/mL cisplatin and 500 nM gemcitabine for UM-UC-3^CDDP/GEM. The LoVo cell line was cultured in F-12K Nutrient Mixture (F-12K; Corning, Corning, USA), supplemented with 10% (v/v) FBS. LoVo^Dx culture medium was additionally supplemented with doxorubicin 100 ng/mL (Accord, Warsaw, Poland). The MCF-7 cell line was cultured in Eagle’s medium (HIIET, PAS, Wroclaw, Poland), supplemented with 10% (v/v) FBS (Sigma-Aldrich, Poznań, Poland), 2 mM L-glutamine, MEM non-essential amino acid solution 1% (v/v) (Sigma-Aldrich, Poznań, Poland), insulin 8 µg/mL (Sigma-Aldrich, Poznań, Poland). The MDA-MB-231 cell line was cultured in RPMI 1640 (HIIET, PAS, Wroclaw, Poland), supplemented with 10% (v/v) FBS (Sigma-Aldrich, Poznań, Poland) and 2 mM L-glutamine. The A 549 cell line was cultured in OptiMEM (HIIET, PAS, Wroclaw, Poland), supplemented with 5% (v/v) FBS (GE Healthcare HyClone, Logan, USA) and 2 mM L-glutamine. All culture media were supplemented with antibiotics—100 μg/mL streptomycin (Polfa Tarchomin, Warsaw, Poland) and 100 U/mL penicillin (Sigma-Aldrich, Poznań, Poland).
(§3) All cell lines were cultured in a humidified atmosphere at 37 °C with 5% (v/v) CO2 and passaged twice a week using EDTA-Trypsin solution (pH 8; HIIET, Wroclaw, Poland) as a detachment agent.
(§4) All compounds, for antiproliferative activity assessment, were stored at […] as 50 mM solutions in dimethyl sulfoxide (DMSO; Avantor Performance Materials, Gliwice, Poland).
(§5) The cells were seeded on 384-well plates (Greiner Bio One, Kremsmünster, Austria) at 1 × 10^3 cells/well density for A 549, UM-UC-3, UM-UC-3^CDDP, UM-UC-3^GEM, UM-UC-3^CVBL and UM-UC-3^CDDP/GEM cell lines. Other cell lines were seeded at 2 × 10^3 cells/well. After overnight incubation, compounds were applied at eight concentrations (ranging from 100 µM to 0.03 µM). After 72 h incubation, the sulforhodamine B (SRB) assay based on Skehan et al. was carried out with slight modifications. In brief, 50 µL of the medium was replaced with 30 µL/well of 25% (w/v) trichloroacetic acid (Avantor Performance Materials, Gliwice, Poland). After 1 h incubation at room temperature, plates were washed three times with tap water, and 20 µL of 0.1% (w/v) solution of sulforhodamine B (Sigma-Aldrich, Poznan, Poland) in 1% (v/v) acetic acid (Avantor Performance Materials, Gliwice, Poland) was added to each well. […]

[2] = tested on: MCF-7 (breast adenocarcinoma); test: Antiproliferative activity, sulforhodamine B assay; type: cell-based, human; conditions: Homo sapiens, MCF7; SRB, 72 h incubation; read-out: IC50 ± SD, MCF-7
Excerpt: as §1, §2, §3, §4, §5

A549 (lung carcinoma) = test: Antiproliferative activity, sulforhodamine B assay; type: cell-based, human; conditions: Homo sapiens, A549; SRB, 72 h incubation; read-out: IC50 ± SD, A-549
Excerpt: as §1, §2, §3, §4, §5

[3] = tested on: ten diverse human cancer cells lines and murine non-tumorigenic cell line (Balb/3T3); test: Antiproliferative screen, whole cell line panel (statements in words); type: cell-based; conditions: SRB, across cell lines
Excerpt: as §1, §2, §3, §4, §5

[4] = tested on: UM-UC-3 (urinary bladder transitional cell carcinoma); test: Antiproliferative activity, sulforhodamine B assay; type: cell-based, human; conditions: Homo sapiens, UMUC3; SRB, 72 h incubation; read-out: IC50 ± SD, UM-UC-3
Excerpt: as §1, §2, §3, §4, §5

[5] = tested on: UM-UC-3^GEM (gemcitabine-resistant); test: Antiproliferative activity, sulforhodamine B assay; type: cell-based, human; conditions: Homo sapiens, SRB, 72 h incubation, read-out: IC50 ± SD, UM-UC-3^GEM
Excerpt: as §1, §2, §3, §4, §5

[6] = tested on: UM-UC-3^VBL (vinblastine-resistant); test: Antiproliferative activity, sulforhodamine B assay; type: cell-based, human; conditions: Homo sapiens, SRB, 72 h incubation, read-out: IC50 ± SD, UM-UC-3^VBL
Excerpt: as §1, §2, §3, §4, §5

[7] = tested on: LoVo^DX (colorectal adenocarcinoma, doxorubicin-resistant); test: Antiproliferative activity, sulforhodamine B assay; type: cell-based, human; conditions: Homo sapiens, LoVo/DX, SRB, 72 h incubation, read-out: IC50 ± SD, LoVo^DX
Excerpt: as §1, §2, §3, §4, §5

[8] = tested on: UM-UC-3^CDDP/GEM (resistant to cisplatin and gemcitabine); test: Antiproliferative activity, sulforhodamine B assay; type: cell-based, human; conditions: Homo sapiens, SRB, 72 h incubation, read-out: IC50 ± SD, UM-UC-3^CDDP/GEM
Excerpt: as §1, §2, §3, §4, §5

[9] = tested on: LoVo (colorectal adenocarcinoma); test: Antiproliferative activity, sulforhodamine B assay; type: cell-based, human; conditions: Homo sapiens, LoVo; SRB, 72 h incubation; read-out: IC50 ± SD, LoVo
Excerpt: as §1, §2, §3, §4, §5

[10] = tested on: UM-UC-3^CDDP (cisplatin-resistant); test: Antiproliferative activity, sulforhodamine B assay; type: cell-based, human; conditions: Homo sapiens, SRB, 72 h incubation, read-out: IC50 ± SD, UM-UC-3^CDDP
Excerpt: as §1, §2, §3, §4, §5

[11] = tested on: Balb/3T3 (non-tumorigenic murine fibroblasts); test: Antiproliferative activity, sulforhodamine B assay; type: cell-based; conditions: Mus musculus, BALB/3T3; SRB, 72 h incubation; non-tumorigenic line; read-out: IC50 ± SD, Balb/3T3
Excerpt: as §1, §2, §3, §4, §5

| IC50 [1] [µM] | IC50 [2] [µM] | IC50 (A549 (lung carcinoma)) [µM] | IC50 [4] [µM] | IC50 [7] [µM] | IC50 [9] [µM] | SMILES | antiproliferative activity (in words) [3] | IC50 [5] [µM] | IC50 [6] [µM] | IC50 [8] [µM] | IC50 [10] [µM] | IC50 [11] [µM] |
| --- | --- | --- | --- | --- | --- | --- | --- | --- | --- | --- | --- | --- |
| 56 ± 7.1 | > 100 | 33.4 ± 6.4 | – | – | – | COC(=O)/C(=C/Sc1nc2ccccc2s1)NC(=O)CN [Compound 9d, HCl Gly-ΔCys(S-benzothiazole)-OMe] | – | – | – | – | – | – |
| – | – | – | – | – | – | COC(=O)/C(=C/Sc1nc2c(N)ncnc2[nH]1)NC(=O)CNC(=O)OC(C)(C)C [Compound 6e, Boc-Gly-ΔCys(S-adenine)-OMe] | markedly lower, if any, activity | – | – | – | – | – |
| 35 ± 10 | 31.8 ± 7.8 | 27.2 ± 7.7 | 23.1 ± 2.6 | > 100 | 32.4 ± 2.6 | COC(=O)/C(=C/Sc1nc(-c2ccccc2)c[nH]1)NC(=O)CNC(=O)OC(C)(C)C [Compound 6b, Boc-Gly-ΔCys(S-4-phenylimidazole)-OMe] | – | 35.1 ± 2.8 | 33.8 ± 2.6 | 32.5 ± 4 | 34.6 ± 3.6 | 38.4 ± 3.5 |
